Assays:
[1] = system: edema in the hind paws (carrageenan); test: Antiinflammatory effect: carrageenan-induced edema of the hind paws; format: in vivo, Male Wister rats; details: oral, rat; for Inhibition (%) (after 3 hours): 1% carrageenan edema
Experimental: Male Wister rats each weighing about 100 g, one group consisting of 5 to 7 rats, were orally given test compounds, and edema was then induced in the hind paws by a subcutaneous injection of 0.1 ml of a 1% carrageenan saline solution one hour after the administration of the test compounds. With a predetermined lapse of time, the volumes of the hind paws were measured by a volume differential meter. Indomethacin was used as an active placebo.

[2] = system: writhing syndromes (acetic acid); test: Analgesic effect: acetic acid-induced writhing syndromes; format: in vivo, dd Male mice; details: oral, mouse, 0.6% acetic acid writhing within 20 minutes
Experimental: dd Male mice each weighing 18 to 22 g, one group consisting of 10 mice, were given by an intraperitoneal injection of 0.6% acetic acid in a dosage of 0.1 ml/10 g/body weight. The number of writhing syndromes occurring within 20 minutes after the injection was observed. These animals were given orally test compounds suspended in a 0.2% carboxymethylcellulose solution 30 minutes before the injection of acetic acid. The inhibitory percentage of each of the test compounds was calculated in comparison with a control in which a 0.2% carboxymethylcellulose solution only was given. Aspirin was used as an active placebo.

[3] = LD50 by the Lichfield-Wilcoxon method; details: rat, in vivo, rats
Source text: This fact confirms the excellent effects of the present compounds.

Row | Structure (SMILES) | Inhibition (%) (after 3 hours) ([1]; 2 mg/kg) | Analgesic activity (ratio to Aspirin) [2] | Antiinflammatory activity (ratio to Indomethacin) [1] | Inhibition (%) (after 3 hours) ([1]; 4 mg/kg) | LD50 [3] [mg/kg]
1 | CC(C(N)=O)c1ccc2c(c1)CC(=O)c1ccccc1S2 (centres unmarked) [Compound 1, 2-(10,11-Dihydro-10-oxodibenzo[b,f]thiepin-2-yl)-propionamide] | 52.5 | – | – | – | –
2 | O=C(O)Cc1ccc2c(c1)Sc1ccccc1C(=O)C2 [Comparative compound B] | – | 1 | 0.01 | – | –
3 | O=C(O)Cc1ccc2c(c1)CC(=O)c1ccccc1S2 [Comparative compound A] | – | 1 | 0.01 | – | –
4 | COc1ccc2c(c1)c(CC(=O)O)c(C)n2C(=O)c1ccc(Cl)cc1 [Indomethacin] | 35.9 | – | – | 51.9 | –
5 | CC(C(=O)O)c1ccc2c(c1)CC(=O)c1ccccc1S2 (centres unmarked) [Compound 2, 2-(10,11-Dihydro-10-oxodibenzo[b,f]thiepin-2-yl)-propionic acid] | 55.8 | 20 | 2 | – | 232

Source: US4247706A, “Dibenzothiepin derivatives and a process for producing the same” (Nippon Chemiphar Co., Ltd., priority 1978, dated 1981)
